From patent US10717716B2, “1,3,4-oxadiazole derivative compounds as histone deacetylase 6 inhibitor, and the pharmaceutical composition comprising the same” (Chong Kun Dang Pharmaceutical Corp., priority 2015, dated 2020) come the findings set out here.

Structures are written as SMILES.

For the experiment, the target named is T1, human recombinant HDAC6 (Homo sapiens, UniProt Q9UBN7).
T1 construct: purchased Calbiochem 382180
T1 sequence (Q9UBN7 1-1215): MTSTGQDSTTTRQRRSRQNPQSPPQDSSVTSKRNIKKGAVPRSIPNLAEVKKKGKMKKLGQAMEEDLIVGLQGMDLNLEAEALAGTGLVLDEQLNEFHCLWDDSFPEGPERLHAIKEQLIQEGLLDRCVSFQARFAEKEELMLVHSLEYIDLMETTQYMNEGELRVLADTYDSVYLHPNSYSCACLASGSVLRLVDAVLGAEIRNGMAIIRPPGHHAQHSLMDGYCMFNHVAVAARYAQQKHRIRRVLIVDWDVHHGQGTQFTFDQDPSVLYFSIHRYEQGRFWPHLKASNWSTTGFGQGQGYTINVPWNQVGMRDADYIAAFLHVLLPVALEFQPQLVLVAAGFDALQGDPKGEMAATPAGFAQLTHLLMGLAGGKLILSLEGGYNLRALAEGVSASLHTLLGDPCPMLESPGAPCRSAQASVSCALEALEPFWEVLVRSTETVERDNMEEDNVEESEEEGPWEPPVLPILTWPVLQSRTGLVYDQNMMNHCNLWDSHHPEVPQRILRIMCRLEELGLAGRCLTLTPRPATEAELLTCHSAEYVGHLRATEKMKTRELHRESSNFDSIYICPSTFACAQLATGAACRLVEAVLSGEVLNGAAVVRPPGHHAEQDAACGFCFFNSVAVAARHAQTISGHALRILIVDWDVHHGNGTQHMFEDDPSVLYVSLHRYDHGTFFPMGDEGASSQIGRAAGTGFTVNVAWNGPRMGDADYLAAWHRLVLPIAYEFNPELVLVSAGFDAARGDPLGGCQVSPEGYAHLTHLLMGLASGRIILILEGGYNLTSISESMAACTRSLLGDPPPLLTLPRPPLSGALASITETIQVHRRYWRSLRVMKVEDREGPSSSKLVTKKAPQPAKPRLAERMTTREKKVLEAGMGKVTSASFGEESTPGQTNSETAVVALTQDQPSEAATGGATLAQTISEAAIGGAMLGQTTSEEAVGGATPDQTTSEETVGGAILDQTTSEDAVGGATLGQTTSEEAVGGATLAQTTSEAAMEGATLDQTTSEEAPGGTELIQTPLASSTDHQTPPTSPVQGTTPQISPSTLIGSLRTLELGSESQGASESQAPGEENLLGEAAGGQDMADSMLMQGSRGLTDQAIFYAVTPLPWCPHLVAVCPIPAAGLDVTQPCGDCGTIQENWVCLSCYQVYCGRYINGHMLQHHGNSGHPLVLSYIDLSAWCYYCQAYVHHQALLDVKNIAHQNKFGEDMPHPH
In words: HDAC6 enzyme activity inhibition assay (HDAC Fluorimetric Drug Discovery Kit). The format is biochemical. The following applies: for HDAC6 selectivity (fold): HDAC6 over HDAC1; for IC50: human recombinant HDAC6, same protocol as HDAC1, read-out: HDAC6. In a few lines:
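Human recombinant HDAC1 or HDAC6 (0.3 μg) reacted with 10 μM Fluor de Lys-SIRT1 substrate and 5-fold compound dilutions for 60 min at 30 °C. Developer II added for 30 min, fluorescence read at Ex 360/Em 460; IC50 calculated from the readings.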

On to `O=C(N1CCS(=O)(=O)CC1)N(Cc1ccc(-c2nnc(C(F)F)o2)cc1)c1ccc(-c2ccc3c(c2)OCO3)cc1` [Compound 21494, N-(4-(benzo[d][1,3]dioxol-5-yl)phenyl)-N-(4-(5-(difluoromethyl)-1,3,4-oxadiazol-2-yl)benzyl)thiomorpholine-4-carboxamide 1,1-dioxide], for which the “HDAC6 selectivity (fold)” value is given as 89 fold and the IC50 turned out to be 112 nM.
The corresponding values for `O=C(N1CCC2(CC1)CNC2)N(Cc1ccc(-c2nnc(C(F)F)o2)cc1F)c1ccccc1` [Compound 21495, N-(4-(5-(difluoromethyl)-1,3,4-oxadiazol-2-yl)-2-fluorobenzyl)-N-phenyl-2,7-diazaspiro[3.5]nonane-7-carboxamide] are 294 fold and 34 nM.
Turning to `CN1CC2(CCN(C(=O)N(Cc3ccc(-c4nnc(C(F)F)o4)cc3F)c3ccccc3)CC2)C1` [Compound 21496, N-(4-(5-(difluoromethyl)-1,3,4-oxadiazol-2-yl)-2-fluorobenzyl)-2-methyl-N-phenyl-2,7-diazaspiro[3.5]nonane-7-carboxamide], the “HDAC6 selectivity (fold)” value was found to be 500 fold and the IC50 was found to be 20 nM.
The corresponding values for `O=C(N1CC2(CCNCC2)C1)N(Cc1ccc(-c2nnc(C(F)F)o2)cc1F)c1ccccc1` [Compound 21497, N-(4-(5-(difluoromethyl)-1,3,4-oxadiazol-2-yl)-2-fluorobenzyl)-N-phenyl-2,7-diazaspiro[3.5]nonane-2-carboxamide] are 294 fold and 34 nM.
The like results for `CN1CCC2(CC1)CN(C(=O)N(Cc1ccc(-c3nnc(C(F)F)o3)cc1F)c1ccccc1)C2` [Compound 21498, N-(4-(5-(difluoromethyl)-1,3,4-oxadiazol-2-yl)-2-fluorobenzyl)-7-methyl-N-phenyl-2,7-diazaspiro[3.5]nonane-2-carboxamide] were, in that order, 714 fold and 14 nM.
The corresponding values for `CCN1CCC2(CC1)CN(C(=O)N(Cc1ccc(-c3nnc(C(F)F)o3)cc1F)c1ccccc1)C2` [Compound 21499, N-(4-(5-(difluoromethyl)-1,3,4-oxadiazol-2-yl)-2-fluorobenzyl)-7-ethyl-N-phenyl-2,7-diazaspiro[3.5]nonane-2-carboxamide] are 588 fold and 17 nM.
For the compound `CC(=O)N1CCC2(CC1)CN(C(=O)N(Cc1ccc(-c3nnc(C(F)F)o3)cc1F)c1ccccc1)C2` [Compound 21500, 7-Acetyl-N-(4-(5-(difluoromethyl)-1,3,4-oxadiazol-2-yl)-2-fluorobenzyl)-N-phenyl-2,7-diazaspiro[3.5]nonane-2-carboxamide], the “HDAC6 selectivity (fold)” value worked out at 400 fold and the IC50 is 25 nM.
The like results for `CS(=O)(=O)N1CCC2(CC1)CN(C(=O)N(Cc1ccc(-c3nnc(C(F)F)o3)cc1F)c1ccccc1)C2` [Compound 21501, N-(4-(5-(difluoromethyl)-1,3,4-oxadiazol-2-yl)-2-fluorobenzyl)-7-(methylsulfonyl)-N-phenyl-2,7-diazaspiro[3.5]nonane-2-carboxamide] were, in that order, 357 fold and 28 nM.
The corresponding values for `O=C(N1CCS(=O)(=O)CC1)N(Cc1ccc(-c2nnc(C(F)F)o2)cc1)c1cccc(-c2ccccc2)c1` [Compound 21502, N-([1,1′-biphenyl]-3-yl)-N-(4-(5-(difluoromethyl)-1,3,4-oxadiazol-2-yl)benzyl)thiomorpholine-4-carboxamide 1,1-dioxide] are 36 fold and 279 nM.
The like results for `CCc1ccc(N(Cc2ccc(-c3nnc(C(F)(F)F)o3)cc2F)C(=O)N2CCS(=O)(=O)CC2)cc1` [Compound 21511, N-(4-ethylphenyl)-N-(2-fluoro-4-(5-(trifluoromethyl)-1,3,4-oxadiazol-2-yl)benzyl)thiomorpholine-4-carboxamide 1,1-dioxide] were, in that order, 30 fold and 332 nM.
